# According to ChEMBL document CHEMBL5108009, “Positron Emission Tomography (PET) Imaging Tracers for Serotonin Receptors” (J Med Chem, 2022):
# Columns and labels:
# [1] = target: T1, 5-hydroxytryptamine receptor 1A (Homo sapiens, UniProt P08908)
# T1 sequence (P08908 whole entry): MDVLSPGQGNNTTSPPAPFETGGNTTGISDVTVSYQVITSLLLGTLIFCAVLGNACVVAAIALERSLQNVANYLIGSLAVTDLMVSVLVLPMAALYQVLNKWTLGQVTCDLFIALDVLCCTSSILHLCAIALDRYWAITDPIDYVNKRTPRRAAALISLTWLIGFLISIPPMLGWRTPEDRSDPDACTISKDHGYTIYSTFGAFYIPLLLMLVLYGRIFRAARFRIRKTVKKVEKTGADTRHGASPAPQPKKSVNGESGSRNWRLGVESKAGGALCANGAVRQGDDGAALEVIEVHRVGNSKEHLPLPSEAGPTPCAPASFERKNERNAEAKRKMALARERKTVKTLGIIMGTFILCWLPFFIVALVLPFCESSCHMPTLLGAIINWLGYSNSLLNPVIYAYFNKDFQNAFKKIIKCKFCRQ
# [2] = Drug uptake ratio in cat brain dorsal raphe nucleus to cerebellum measured after 20 to 30 mins by camera ClearPET LYSO/LuYAP Phoswich-scanner analysis; format: ADME, tissue-based, Felis catus; conditions: time 20-30 min
# [3] = Drug uptake ratio in Sprague-Dawley rat brain cingulate cortex to cerebellum measured after 20 to 30 mins by camera ClearPET LYSO/LuYAP Phoswich-scanner analysis; format: ADME, tissue-based; conditions: time 20-30 min
# [4] = target: T2, 5-hydroxytryptamine receptor 1B (Cavia porcellus, UniProt O08892); assay: Binding affinity to guinea pig 5-HT1B receptor assessed as dissociation constant by autoradiographic analysis
# T2 sequence (O08892 whole entry): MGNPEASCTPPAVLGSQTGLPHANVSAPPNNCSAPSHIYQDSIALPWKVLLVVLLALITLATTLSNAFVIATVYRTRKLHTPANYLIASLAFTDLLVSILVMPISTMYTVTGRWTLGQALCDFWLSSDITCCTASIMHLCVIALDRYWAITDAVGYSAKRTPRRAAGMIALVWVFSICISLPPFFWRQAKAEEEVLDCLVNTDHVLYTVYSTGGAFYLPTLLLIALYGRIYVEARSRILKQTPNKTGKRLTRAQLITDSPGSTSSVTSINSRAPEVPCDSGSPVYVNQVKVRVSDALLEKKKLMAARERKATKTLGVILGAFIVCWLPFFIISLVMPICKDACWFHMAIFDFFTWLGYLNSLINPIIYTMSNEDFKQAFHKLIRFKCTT
# [5] = Ratio of drug uptake in macaque brain thalamus to cerebellum at 3680 to 4035 Ci/mmol, iv by PET imaging upto 100 mins relative to control; format: ADME, organism-based; conditions: macaca, in vivo, 1.667 h, dose 3680-4035 Ci/mmol
# [6] = target: T2, 5-hydroxytryptamine receptor 1B; assay: Binding affinity to guinea pig 5-HT1B receptor assessed as inhibition constant by autoradiographic analysis
# [7] = Ratio of drug uptake in macaque brain occipital cortex to cerebellum at 3680 to 4035 Ci/mmol, iv by PET imaging upto 100 mins relative to control; format: ADME, organism-based; conditions: macaca, in vivo, 1.667 h, dose 3680-4035 Ci/mmol
# [8] = Ratio of drug uptake in macaque brain striatopallidal complex to cerebellum at 3680 to 4035 Ci/mmol, iv by PET imaging upto 100 mins relative to control; format: ADME, organism-based; conditions: macaca, in vivo, 1.667 h, dose 3680-4035 Ci/mmol
# [9] = Drug uptake in macaque brain at 3680 to 4035 Ci/mmol, iv measured as percentage of injected dose by PET imaging at 7.5 mins relative to control; format: ADME, organism-based; conditions: macaca, in vivo, 0.125 h, dose 3680-4035 Ci/mmol
# [10] = Ratio of drug uptake in macaque brain frontal cortex to cerebellum at 3680 to 4035 Ci/mmol, iv by PET imaging upto 100 mins relative to control; format: ADME, organism-based; conditions: macaca, in vivo, 1.667 h, dose 3680-4035 Ci/mmol
# [11] = target: T1, 5-hydroxytryptamine receptor 1A; assay: Displacement of [3H]-8-OH-DPAT from 5HT1A receptor (unknown origin)
# [12] = Ratio of drug uptake in monkey anterior cingulate cortex to cerebellum; format: ADME, tissue-based, Macaca mulatta; conditions: rhesus monkey, in vivo
# [13] = Ratio of drug uptake in monkey hippocampus to cerebellum; format: ADME, tissue-based, Macaca mulatta; conditions: rhesus monkey, in vivo
# [14] = Drug metabolism in plasma (unknown origin) assessed as parent compound remaining measured at 55 mins relative to control; format: ADME; conditions: read-out: Stability
# [15] = Ratio of drug distribution in cynomolgus monkey hippocampus to cerebellum measured at 30 mins postinjection; format: ADME, organism-based, Macaca fascicularis; conditions: in vivo, 0.5 h
# [16] = Drug uptake in cynomolgus monkey in brain administered IV measured at 7.5 mins relative to control; format: ADME, tissue-based, Macaca fascicularis; conditions: in vivo, 0.125 h
# [17] = target: T1, 5-hydroxytryptamine receptor 1A; remark: listed apart in the source
# [18] = Ratio of drug distribution in rat hippocampus to cerebellum at 30 mins postinjection; format: ADME, organism-based; conditions: in vivo, 0.5 h
# [19] = Drug uptake in plasma (unknown origin) as parent compound by measuring radioactivity at 30 mins postinjection relative to control; format: ADME, organism-based; conditions: in vivo, 0.5 h
# [20] = Binding affinity to pig 5-HT1B receptor (unknown origin) assessed as inhibition constant
# [21] = Drug uptake in cynomolgus monkey frontal cortex administered iv measured as percentage of injected dose by PET imaging relative to control; format: ADME, organism-based, Macaca fascicularis; conditions: in vivo
# [22] = Ratio of drug uptake in baboon cingulate cortex to cerebellum; format: ADME, tissue-based, Papio; conditions: in vivo
# [23] = Ratio of drug uptake in baboon insula to cerebellum; format: ADME, tissue-based, Papio; conditions: in vivo
# [24] = Ratio of drug uptake in baboon hippocampus to cerebellum; format: ADME, tissue-based, Papio; conditions: in vivo
# [25] = Ratio of drug biodistribution in rat hippocampus to cerebellum at 30 mins postinjection; format: ADME, organism-based; conditions: in vivo, 0.5 h
# D(2) dopamine receptor = D(2) dopamine receptor (Rattus norvegicus, UniProt P61169); assay: Binding affinity to rat brain homogenate D2 receptor assessed as dissociation constant; format: tissue-based
# D(2) dopamine receptor, sequence (P61169 whole entry): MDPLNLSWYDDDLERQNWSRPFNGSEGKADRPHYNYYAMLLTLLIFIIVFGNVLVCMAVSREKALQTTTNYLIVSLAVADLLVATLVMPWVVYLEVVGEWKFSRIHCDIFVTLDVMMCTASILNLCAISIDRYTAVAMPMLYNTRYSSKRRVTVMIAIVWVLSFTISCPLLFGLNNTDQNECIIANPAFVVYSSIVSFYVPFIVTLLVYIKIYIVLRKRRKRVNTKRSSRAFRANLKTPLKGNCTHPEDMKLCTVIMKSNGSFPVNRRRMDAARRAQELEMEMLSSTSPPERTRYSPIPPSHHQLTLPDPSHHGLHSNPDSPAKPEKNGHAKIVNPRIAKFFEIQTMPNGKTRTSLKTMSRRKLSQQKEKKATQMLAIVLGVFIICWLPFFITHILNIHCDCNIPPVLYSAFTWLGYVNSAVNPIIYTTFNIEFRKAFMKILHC
# [26] = target: T3, 5-hydroxytryptamine receptor 1A (Rattus norvegicus, UniProt P19327); assay: Binding affinity to rat brain homogenate 5-HT1A receptor assessed as dissociation constant; format: tissue-based
# T3 sequence (P19327 whole entry): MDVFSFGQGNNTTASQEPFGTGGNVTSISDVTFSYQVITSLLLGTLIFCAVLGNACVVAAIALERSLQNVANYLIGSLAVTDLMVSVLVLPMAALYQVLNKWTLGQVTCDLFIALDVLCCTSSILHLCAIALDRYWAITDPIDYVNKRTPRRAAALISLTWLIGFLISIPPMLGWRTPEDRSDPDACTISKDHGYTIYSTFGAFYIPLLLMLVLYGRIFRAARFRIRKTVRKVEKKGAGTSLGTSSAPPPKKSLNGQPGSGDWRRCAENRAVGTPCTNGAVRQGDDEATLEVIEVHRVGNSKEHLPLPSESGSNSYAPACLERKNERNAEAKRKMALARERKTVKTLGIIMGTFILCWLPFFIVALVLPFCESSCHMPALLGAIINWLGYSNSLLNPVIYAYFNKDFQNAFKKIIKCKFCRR
# [27] = target: Sodium-dependent serotonin transporter (Rattus norvegicus, UniProt P31652); assay: Binding affinity to rat brain homogenate SERT receptor assessed as dissociation constant; format: tissue-based
# Sodium-dependent serotonin transporter, sequence (P31652 whole entry): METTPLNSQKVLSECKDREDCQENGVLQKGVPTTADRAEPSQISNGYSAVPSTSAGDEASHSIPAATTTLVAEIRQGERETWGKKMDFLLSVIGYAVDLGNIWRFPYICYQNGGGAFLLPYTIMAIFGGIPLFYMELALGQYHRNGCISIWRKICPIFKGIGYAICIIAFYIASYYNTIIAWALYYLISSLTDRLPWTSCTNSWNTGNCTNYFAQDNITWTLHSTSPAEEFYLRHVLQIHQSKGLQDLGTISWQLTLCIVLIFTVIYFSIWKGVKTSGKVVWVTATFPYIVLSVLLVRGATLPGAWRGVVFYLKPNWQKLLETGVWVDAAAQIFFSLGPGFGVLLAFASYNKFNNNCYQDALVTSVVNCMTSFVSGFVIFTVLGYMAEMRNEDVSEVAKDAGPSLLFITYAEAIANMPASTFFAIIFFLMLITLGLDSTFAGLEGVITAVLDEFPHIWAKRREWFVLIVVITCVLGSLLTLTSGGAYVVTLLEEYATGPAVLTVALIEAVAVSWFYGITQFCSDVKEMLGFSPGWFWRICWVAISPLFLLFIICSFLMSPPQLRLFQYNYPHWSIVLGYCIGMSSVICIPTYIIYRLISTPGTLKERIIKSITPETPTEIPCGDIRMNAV
# [28] = Drug uptake in monkey brain measured after 7 mins postinjection; format: ADME, organism-based, Macaca mulatta; conditions: rhesus monkey, in vivo
# [29] = Drug uptake in rat brain; format: ADME, tissue-based; conditions: in vivo
# [30] = target: T1, 5-hydroxytryptamine receptor 1A; assay: Binding affinity to human 5-HT1A receptor expressed in CHO cells assessed as inhibition constant; format: cell-based
# [31] = target: 5-hydroxytryptamine receptor 1D (Homo sapiens, UniProt P28221); assay: Binding affinity to human 5-HT1D receptor expressed in CHO cells assessed as inhibition constant; format: cell-based
# 5-hydroxytryptamine receptor 1D, sequence (P28221 whole entry): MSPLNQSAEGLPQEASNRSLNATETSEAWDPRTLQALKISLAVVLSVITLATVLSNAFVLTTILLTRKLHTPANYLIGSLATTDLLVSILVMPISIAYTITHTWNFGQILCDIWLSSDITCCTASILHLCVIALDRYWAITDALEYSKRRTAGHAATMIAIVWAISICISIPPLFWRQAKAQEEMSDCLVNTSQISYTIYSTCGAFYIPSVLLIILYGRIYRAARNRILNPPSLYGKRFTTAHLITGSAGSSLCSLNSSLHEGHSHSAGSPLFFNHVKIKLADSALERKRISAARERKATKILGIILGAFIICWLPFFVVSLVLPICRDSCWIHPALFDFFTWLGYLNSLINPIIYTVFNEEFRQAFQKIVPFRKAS
# [32] = target: 5-hydroxytryptamine receptor 2B (Homo sapiens, UniProt P41595); assay: Binding affinity to human 5-HT2B receptor expressed in CHO cells assessed as inhibition constant; format: cell-based
# 5-hydroxytryptamine receptor 2B, sequence (P41595 whole entry): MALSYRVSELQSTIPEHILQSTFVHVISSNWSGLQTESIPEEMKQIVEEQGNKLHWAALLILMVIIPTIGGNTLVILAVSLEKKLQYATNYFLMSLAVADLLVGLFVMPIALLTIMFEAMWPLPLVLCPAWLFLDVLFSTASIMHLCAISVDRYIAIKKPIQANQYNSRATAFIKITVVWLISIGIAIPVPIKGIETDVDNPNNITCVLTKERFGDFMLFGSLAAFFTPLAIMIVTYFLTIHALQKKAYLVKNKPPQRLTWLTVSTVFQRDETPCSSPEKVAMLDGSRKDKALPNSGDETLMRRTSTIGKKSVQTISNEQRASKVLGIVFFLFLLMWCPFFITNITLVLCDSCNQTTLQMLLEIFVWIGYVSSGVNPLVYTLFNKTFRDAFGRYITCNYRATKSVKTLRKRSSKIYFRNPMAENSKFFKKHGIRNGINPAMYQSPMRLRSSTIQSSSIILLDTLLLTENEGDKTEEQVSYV
# D(4) dopamine receptor = D(4) dopamine receptor (Homo sapiens, UniProt P21917); assay: Binding affinity to human D4 receptor expressed in CHO cells assessed as inhibition constant; format: cell-based
# D(4) dopamine receptor, sequence (P21917 whole entry): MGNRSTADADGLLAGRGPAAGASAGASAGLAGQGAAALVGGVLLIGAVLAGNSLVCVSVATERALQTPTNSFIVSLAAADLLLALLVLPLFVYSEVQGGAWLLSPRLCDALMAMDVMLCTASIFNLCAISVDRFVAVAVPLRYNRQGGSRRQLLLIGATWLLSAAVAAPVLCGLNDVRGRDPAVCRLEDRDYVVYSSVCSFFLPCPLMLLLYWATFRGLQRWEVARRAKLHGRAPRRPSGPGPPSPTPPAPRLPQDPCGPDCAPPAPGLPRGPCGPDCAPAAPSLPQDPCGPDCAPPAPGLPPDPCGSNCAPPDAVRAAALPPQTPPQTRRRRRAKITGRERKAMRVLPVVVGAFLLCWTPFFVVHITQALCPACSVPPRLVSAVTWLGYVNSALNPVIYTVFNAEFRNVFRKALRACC
# [33] = target: T4, Alpha-1A adrenergic receptor (Homo sapiens, UniProt P35348); assay: Binding affinity to human alpha 1A adrenergic receptor expressed in CHO cells assessed as inhibition constant; format: cell-based
# T4 sequence (P35348 whole entry): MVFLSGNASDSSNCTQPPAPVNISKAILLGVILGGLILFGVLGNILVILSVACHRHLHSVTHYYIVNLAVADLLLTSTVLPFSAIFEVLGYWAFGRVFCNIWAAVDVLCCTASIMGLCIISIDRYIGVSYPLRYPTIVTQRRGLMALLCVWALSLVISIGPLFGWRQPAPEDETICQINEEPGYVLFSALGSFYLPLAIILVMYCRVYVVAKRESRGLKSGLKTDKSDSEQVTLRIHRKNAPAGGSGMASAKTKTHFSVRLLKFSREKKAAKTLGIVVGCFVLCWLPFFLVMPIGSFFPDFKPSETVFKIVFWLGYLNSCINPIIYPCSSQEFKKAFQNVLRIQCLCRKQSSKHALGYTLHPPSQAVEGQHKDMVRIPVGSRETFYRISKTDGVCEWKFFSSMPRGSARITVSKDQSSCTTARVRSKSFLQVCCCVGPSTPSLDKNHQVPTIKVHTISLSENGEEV
# [34] = target: T1, 5-hydroxytryptamine receptor 1A; assay: Binding affinity to 5-HT1A receptor (unknown origin) assessed as inhibition constant by scintillation spectroscopic analysis
# [35] = Ratio of drug uptake in Rhesus monkey frontal cortex to cerebellum; format: ADME, tissue-based, Macaca mulatta, Brain frontal cortex/cerebellum; conditions: in vivo
# [36] = Ratio of drug uptake in Rhesus monkey raphe to cerebellum; format: ADME, tissue-based, Macaca mulatta; conditions: in vivo
# [37] = Drug metabolism in Rhesus monkey plasma assessed as unmetabolized compound after 3 hrs by TLC analysis; format: ADME, cell-free, Macaca mulatta; conditions: read-out: Stability
# [38] = Ratio of drug uptake in Rhesus monkey temporal cortex to cerebellum; format: ADME, tissue-based, Macaca mulatta; conditions: in vivo
# [39] = Drug uptake ratio in cynomolgus monkey occipital cortex to cerebellum at 30 to 40 mins postinjection; format: ADME, organism-based, Macaca fascicularis; conditions: in vivo, time 30-40 min
# [40] = Drug metabolism in monkey plasma assessed as unchanged compound at 120 mins postinjection relative to control; format: ADME, organism-based, Macaca mulatta; conditions: rhesus monkey, read-out: Stability
# [41] = Drug uptake ratio in cynomolgus monkey globus pallidus to cerebellum at 30 to 40 mins postinjection; format: ADME, organism-based, Macaca fascicularis; conditions: in vivo, time 30-40 min
# [42] = Ratio of drug uptake in baboon hippocampus to cerebellum at 175 mins; format: ADME, tissue-based, Papio; conditions: in vivo, 2.917 h
# [43] = Ratio of drug uptake in baboon insular cortex to cerebellum at 175 mins; format: ADME, tissue-based, Papio; conditions: in vivo, 2.917 h
# [44] = Ratio of drug uptake in baboon anterior cingulate cortex to cerebellum at 175 mins; format: ADME, tissue-based, Papio; conditions: in vivo, 2.917 h
# [45] = Binding affinity to rhesus monkey 5-HT1B receptor assessed as inhibition constant; parameters: species or system Macaca mulatta
# [46] = Binding affinity to rhesus monkey 5-HT1D receptor assessed as inhibition constant; parameters: species or system Macaca mulatta
# [47] = target: T4, Alpha-1A adrenergic receptor; assay: Inhibition of alpha 1A adrenergic receptor (unknown origin)
# [48] = target: T1, 5-hydroxytryptamine receptor 1A; assay: Inhibition of 5-HT1A receptor (unknown origin)
compound,measurement,setting,value
Cc1cnc(CNCC2(F)CCN(C(=O)c3ccc([18F])c(Cl)c3)CC2)nc1,Ki,[1],2.24 nM
same,Ratio,[2],1.5
same,Ratio,[3],1.6
Cc1ccc(N2CCN([11CH3])CC2)c2oc(C(=O)Nc3ccc(N4CCOCC4)cc3)cc(=O)c12,Kd,[4],0.4 nM
same,Ratio,[5],2.6
same,Ki,[6],0.01 nM
same,Ratio,[7],4.2
same,Ratio,[8],4.1
same,Drug uptake,[9],3%
same,Ratio,[10],2.6
CSc1cccc(C(=O)NC[C@@H]2CCCN2CCc2ccccc2)c1,Ki,[11],4.3 nM
O=C(NCCN1CCN(c2cccc3c2OCCO3)CC1)c1ccc([18F])cc1,Ratio,[12],1.7
same,Ratio,[13],1.7
COc1ccccc1N1CCN(CCN(C(=O)C2CCCCC2)c2cccc([18F])n2)CC1,remaining at 55 min,[14],20%
same,Ratio,[15],1.4
same,Drug uptake,[16],4.33%
COc1ccccc1N1CCN(CCN(C(=O)c2ccc([18F])cc2)c2ccccn2)CC1,Kd,[17],0.34 nM
same,Ratio,[18],5.6
same,Drug uptake,[19],20%
CCC(=O)N1CCN(c2ccc(NC(=O)c3cc(=O)c4cc(F)cc(N5CCN([11CH3])CC5)c4o3)cc2)CC1,Ki,[20],2 nM
same,Drug uptake,[21],0.7%
Cn1c(=O)cnn(CCCCN2CCN(c3ccccc3O[11CH3])CC2)c1=O,Ratio,[22],> 4.7
same,Ratio,[23],> 4.7
same,Ratio,[24],> 4.7
COc1ccccc1N1CCN(CCN(C(=O)c2ccc([18F])cc2)c2ncccn2)CC1,Ki,[1],< 1 nM
same,Ratio,[25],5.5
COc1ccccc1N1CCN(CCn2cc(COCC(COc3ccc([Si]([18F])(C(C)(C)C)C(C)(C)C)cc3)OCc3cn(CCN4CCN(c5ccccc5OC)CC4)nn3)nn2)CC1 (stereo not drawn),Ki,D(2) dopamine receptor,2.2 nM
same,Ki,[26],0.099 nM
same,Ki,[27],9.8 nM
[11CH3]Oc1ccc2cccc(N3CCN(CCNC(=O)c4ccc(F)cc4)CC3)c2c1,Ki,[1],0.98 nM
same,SUV,[28],7
same,SUV,[29],2
O=C(NCCN1CCN(c2cccc3c2OCCO3)CC1)c1ccc(F)cc1,Ki,[30],0.1 nM
same,Ki,[31],25 nM
same,Ki,[32],46 nM
same,Ki,D(4) dopamine receptor,4 nM
same,Ki,[33],40 nM
CNc1nc(CNCC2(F)CCN(C(=O)c3ccc(F)c(Cl)c3)CC2)ccc1C,Ki,[34],0.04 nM
COc1ccccc1N1CCN(CCN(C(=O)C2CCC(C[18F])CC2)c2ccccn2)CC1 (stereo not drawn),Ratio,[35],9
same,Ratio,[36],3.3
same,remaining at 3 h,[37],30%
same,Ratio,[38],10
[11CH3]N1CCN(c2cc(F)cc3c(=O)cc(C(=O)Nc4ccc(N5CCOCC5)c(F)c4)oc23)CC1,Ratio,[39],2.2
same,remaining at 2 h,[40],> 40%
same,Ratio,[41],2.5
Cn1c(=O)cnn(CCCCN2CCN(c3ccccc3OCC[18F])CC2)c1=O,Ratio,[42],4
same,Ratio,[43],1.8
same,Ratio,[44],2.3
COC(C)(C)c1ccc(N2CC[C@@H](Cc3ccccc3N3CCN(C)CC3)C2=O)cc1,Ki,[45],1.2 nM
same,Ki,[46],12 nM
[11CH3]Oc1cccc2c1CCCC2CCCN1CCN(c2ccccc2)CC1 (stereo not drawn),IC50,[47],43 nM
CCCN(CCC)C1CCc2ccc3[nH]cc(C=O)c3c2C1 (stereo not drawn),Ki,[1],1.2 nM
same,IC50,[48],1.2 nM
